Experimental findings from patent US10669284B2, “Fused thiazolopyrimidine derivatives as MNKS inhibitors” (LIFEARC, priority 2015, dated 2020) are described below.

One may read the inhibition as the percentage by which the read-out fell short of the control.

One test addresses SRC (Homo sapiens, UniProt P12931). Briefly: Kinase selectivity screen SRC. The settings on record: read-out: % inhibition of SRC.
For the next test, the target named is T1, TBK1 (Homo sapiens, UniProt Q9UHD2).
T1 sequence (Q9UHD2 1-729): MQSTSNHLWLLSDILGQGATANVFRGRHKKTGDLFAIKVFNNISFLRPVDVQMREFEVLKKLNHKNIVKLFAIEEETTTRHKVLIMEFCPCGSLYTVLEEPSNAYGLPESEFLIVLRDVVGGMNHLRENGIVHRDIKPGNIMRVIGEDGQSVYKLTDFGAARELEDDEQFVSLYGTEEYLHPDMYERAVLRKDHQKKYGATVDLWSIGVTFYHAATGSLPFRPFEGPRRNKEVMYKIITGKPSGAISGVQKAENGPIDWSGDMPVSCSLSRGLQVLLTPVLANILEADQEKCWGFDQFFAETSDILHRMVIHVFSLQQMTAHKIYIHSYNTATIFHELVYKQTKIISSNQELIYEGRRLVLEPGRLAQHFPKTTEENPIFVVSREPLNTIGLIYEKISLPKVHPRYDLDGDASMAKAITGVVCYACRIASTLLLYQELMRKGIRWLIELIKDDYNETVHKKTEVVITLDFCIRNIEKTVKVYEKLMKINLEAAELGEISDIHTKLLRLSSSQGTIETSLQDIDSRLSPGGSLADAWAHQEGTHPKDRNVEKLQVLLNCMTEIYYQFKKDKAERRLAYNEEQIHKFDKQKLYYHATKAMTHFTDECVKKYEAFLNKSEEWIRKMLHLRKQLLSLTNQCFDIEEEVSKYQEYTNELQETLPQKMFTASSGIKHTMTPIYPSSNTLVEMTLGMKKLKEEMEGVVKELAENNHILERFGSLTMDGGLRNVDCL
Put plainly: Kinase selectivity screen TBK1. To be noted: read-out: % inhibition of TBK1.

Another test has as its target PAK4 (Homo sapiens, UniProt O96013). Briefly: Kinase selectivity screen PAK4. The settings on record: read-out: % inhibition of PAK4.
For another test, the target named is FLT1 (Homo sapiens, UniProt P17948). Put plainly: Kinase selectivity screen FLT1. To be noted: read-out: % inhibition of FLT1.
A further test addresses T2, PRAK (Homo sapiens, UniProt Q8IW41).
T2 sequence (Q8IW41 1-473): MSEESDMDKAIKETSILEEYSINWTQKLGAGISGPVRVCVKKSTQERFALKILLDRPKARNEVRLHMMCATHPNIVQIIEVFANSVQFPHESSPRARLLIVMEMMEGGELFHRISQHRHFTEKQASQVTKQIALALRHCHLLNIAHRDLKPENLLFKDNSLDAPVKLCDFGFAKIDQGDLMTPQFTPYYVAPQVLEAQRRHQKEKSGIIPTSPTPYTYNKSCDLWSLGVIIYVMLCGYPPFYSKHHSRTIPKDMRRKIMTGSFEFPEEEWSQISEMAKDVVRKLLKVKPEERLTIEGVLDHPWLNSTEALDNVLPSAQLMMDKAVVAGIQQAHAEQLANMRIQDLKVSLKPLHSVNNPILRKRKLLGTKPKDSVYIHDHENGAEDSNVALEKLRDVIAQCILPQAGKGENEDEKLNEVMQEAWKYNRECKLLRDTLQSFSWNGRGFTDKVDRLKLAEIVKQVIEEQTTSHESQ
Put plainly: Kinase selectivity screen PRAK. The settings on record: read-out: % inhibition of PRAK.

For another test, the target named is T3, DYRK2 (Homo sapiens, UniProt Q92630).
T3 sequence (Q92630 1-601): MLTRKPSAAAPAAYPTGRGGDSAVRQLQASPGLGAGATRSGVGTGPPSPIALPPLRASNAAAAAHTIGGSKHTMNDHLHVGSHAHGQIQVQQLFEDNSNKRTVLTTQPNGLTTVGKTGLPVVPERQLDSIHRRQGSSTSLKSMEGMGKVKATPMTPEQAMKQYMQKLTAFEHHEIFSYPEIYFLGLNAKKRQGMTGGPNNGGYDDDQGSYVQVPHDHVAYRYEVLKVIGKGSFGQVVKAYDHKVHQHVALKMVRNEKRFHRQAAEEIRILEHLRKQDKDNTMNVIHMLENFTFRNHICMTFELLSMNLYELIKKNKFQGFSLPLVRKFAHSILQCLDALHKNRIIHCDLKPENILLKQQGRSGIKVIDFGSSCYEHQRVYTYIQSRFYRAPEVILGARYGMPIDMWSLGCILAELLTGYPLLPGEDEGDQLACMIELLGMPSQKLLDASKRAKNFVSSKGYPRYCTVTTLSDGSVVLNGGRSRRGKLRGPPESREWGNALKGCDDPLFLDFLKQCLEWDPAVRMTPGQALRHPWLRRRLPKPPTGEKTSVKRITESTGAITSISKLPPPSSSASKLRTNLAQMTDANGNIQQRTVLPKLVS
Put plainly: Kinase selectivity screen DYRK2. The settings on record: read-out: % inhibition of DYRK2.

The target in the next test is T4, TYRO3 (Homo sapiens, UniProt Q06418).
T4 sequence (Q06418 41-890): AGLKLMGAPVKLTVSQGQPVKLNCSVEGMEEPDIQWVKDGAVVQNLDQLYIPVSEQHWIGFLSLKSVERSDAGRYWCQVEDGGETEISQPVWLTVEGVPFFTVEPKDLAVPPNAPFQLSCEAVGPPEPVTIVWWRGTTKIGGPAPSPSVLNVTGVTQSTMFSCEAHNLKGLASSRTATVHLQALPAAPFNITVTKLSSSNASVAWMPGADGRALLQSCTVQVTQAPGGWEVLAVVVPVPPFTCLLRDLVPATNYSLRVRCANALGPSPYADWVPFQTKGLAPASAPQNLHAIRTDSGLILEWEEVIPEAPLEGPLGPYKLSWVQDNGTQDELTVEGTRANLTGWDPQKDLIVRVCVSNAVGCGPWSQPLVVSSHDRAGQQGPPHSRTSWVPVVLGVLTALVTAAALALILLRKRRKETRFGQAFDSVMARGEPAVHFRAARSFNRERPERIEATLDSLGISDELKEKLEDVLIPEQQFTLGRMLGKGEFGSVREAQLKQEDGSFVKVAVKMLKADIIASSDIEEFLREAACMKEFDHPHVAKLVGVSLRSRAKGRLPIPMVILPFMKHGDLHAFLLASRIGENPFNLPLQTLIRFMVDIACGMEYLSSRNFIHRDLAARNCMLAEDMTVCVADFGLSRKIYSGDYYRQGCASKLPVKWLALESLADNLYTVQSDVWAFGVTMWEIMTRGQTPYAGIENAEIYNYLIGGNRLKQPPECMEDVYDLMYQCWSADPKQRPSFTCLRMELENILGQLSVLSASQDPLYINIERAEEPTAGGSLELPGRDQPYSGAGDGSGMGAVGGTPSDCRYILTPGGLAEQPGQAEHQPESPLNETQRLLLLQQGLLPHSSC
Put plainly: Kinase selectivity screen TYRO3. To be noted: read-out: % inhibition of TYRO3.

Sequence of PAK4 (O96013 whole entry, species assumed): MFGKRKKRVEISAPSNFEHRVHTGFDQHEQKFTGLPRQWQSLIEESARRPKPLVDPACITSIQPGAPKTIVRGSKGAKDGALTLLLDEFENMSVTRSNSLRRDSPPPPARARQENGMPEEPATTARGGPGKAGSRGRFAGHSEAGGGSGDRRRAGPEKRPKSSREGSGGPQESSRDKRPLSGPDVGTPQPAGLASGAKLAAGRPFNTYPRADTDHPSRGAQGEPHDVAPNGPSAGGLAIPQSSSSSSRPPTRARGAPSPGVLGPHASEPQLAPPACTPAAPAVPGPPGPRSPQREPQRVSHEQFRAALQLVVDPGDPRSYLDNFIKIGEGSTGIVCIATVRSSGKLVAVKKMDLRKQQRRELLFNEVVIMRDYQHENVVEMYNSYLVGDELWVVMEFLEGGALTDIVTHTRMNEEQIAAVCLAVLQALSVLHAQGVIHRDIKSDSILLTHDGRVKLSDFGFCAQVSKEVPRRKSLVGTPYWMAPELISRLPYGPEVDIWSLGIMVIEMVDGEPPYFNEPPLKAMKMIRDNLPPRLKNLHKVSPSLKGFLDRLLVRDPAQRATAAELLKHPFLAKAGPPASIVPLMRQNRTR
Sequence of SRC (P12931 whole entry): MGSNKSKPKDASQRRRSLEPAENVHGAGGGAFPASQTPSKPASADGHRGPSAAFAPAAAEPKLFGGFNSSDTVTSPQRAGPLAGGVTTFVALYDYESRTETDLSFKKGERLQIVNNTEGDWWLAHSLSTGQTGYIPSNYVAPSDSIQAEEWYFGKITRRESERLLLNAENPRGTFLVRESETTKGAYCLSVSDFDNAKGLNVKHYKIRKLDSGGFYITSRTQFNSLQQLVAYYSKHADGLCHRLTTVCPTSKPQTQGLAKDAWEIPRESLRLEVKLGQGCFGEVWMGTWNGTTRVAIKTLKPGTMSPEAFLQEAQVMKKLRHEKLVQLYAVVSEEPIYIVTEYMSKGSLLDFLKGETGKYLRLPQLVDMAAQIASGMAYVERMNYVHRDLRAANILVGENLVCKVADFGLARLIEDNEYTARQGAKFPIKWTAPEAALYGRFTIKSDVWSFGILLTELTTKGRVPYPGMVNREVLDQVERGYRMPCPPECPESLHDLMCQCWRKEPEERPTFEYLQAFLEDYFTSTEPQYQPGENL
Sequence of FLT1 (P17948 27-1338, species assumed): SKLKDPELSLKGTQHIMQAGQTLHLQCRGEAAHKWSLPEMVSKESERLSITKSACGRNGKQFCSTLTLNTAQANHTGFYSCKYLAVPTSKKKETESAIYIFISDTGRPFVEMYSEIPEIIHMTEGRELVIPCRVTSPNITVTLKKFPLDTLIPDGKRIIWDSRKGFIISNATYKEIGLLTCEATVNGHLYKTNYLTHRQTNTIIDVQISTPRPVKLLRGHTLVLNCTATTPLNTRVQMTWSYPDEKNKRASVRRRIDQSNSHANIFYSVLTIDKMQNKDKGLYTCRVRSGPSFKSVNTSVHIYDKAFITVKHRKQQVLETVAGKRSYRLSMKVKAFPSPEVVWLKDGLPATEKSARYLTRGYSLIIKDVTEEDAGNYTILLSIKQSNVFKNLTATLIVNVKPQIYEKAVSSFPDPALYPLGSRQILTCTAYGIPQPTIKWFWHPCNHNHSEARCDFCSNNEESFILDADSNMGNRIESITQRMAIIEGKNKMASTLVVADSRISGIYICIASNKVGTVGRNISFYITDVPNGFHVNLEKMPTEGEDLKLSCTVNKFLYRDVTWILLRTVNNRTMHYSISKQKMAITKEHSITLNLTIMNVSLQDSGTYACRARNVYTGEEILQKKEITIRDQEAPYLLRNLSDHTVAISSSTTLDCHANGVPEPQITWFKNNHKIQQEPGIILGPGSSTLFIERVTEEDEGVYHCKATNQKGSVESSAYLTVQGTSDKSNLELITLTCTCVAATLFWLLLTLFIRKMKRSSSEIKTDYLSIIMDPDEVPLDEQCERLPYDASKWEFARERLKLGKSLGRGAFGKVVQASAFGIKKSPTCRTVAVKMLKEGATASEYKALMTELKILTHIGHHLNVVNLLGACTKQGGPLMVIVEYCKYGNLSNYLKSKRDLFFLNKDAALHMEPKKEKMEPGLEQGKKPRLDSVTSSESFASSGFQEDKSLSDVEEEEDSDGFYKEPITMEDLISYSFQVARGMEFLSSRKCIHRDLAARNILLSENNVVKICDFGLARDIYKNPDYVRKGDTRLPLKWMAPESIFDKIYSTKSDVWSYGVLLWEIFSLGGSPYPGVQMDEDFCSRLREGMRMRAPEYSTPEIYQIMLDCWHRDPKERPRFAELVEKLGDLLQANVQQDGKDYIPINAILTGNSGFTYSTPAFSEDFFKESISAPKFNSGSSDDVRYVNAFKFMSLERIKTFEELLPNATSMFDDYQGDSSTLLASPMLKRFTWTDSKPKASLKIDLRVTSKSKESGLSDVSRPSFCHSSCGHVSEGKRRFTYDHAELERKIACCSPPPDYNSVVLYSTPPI

As for `O=C(NCC1CCNCC1)c1nc2c(N3CCc4cc(F)ccc43)ncnc2s1` [Example 58, 7-(5-fluoroindolin-1-yl)-N-(4-piperidylmethyl)thiazolo[5,4-d]pyrimidine-2-carboxamide], the inhibition at 1 µM on SRC was determined as 0%; on TBK1, 17%; at PAK4 it was 0%; at FLT1, 6%; at PRAK it was 0%; on DYRK2, 21%. Besides, the inhibition at 1 µM on TYRO3 came to 20%.

`CC(C)Oc1cc(F)ccc1Nc1ncnc2sc(C(=O)NCC3CCNCC3)nc12` [Example 10, 7-(4-fluoro-2-isopropoxy-anilino)-N-(4-piperidylmethyl)thiazolo[5,4-d]pyrimidine-2-carboxamide]: the inhibition at 1 µM on SRC stood at 5%; on TBK1 it was 14%; at PAK4, 15%; on FLT1, 12%; at PRAK, 0%; on DYRK2, 7%. Further, the inhibition at 1 µM at TYRO3 stood at 0%.

Turning to `CN(C)CCCNC(=O)c1nc2c(N3CCc4cc(F)ccc43)ncnc2s1` [Example 64, N-[3-(dimethylamino)propyl]-7-(5-fluoroindolin-1-yl)thiazolo[5,4-d]pyrimidine-2-carboxamide], the inhibition at 1 µM worked out at 0% on SRC; 7% at TBK1; 4% at PAK4; 27% at FLT1; 0% on PRAK; 44% at DYRK2. The inhibition at 1 µM on TYRO3 stood at 0%.
